≈ marks a conversion by molar mass, not a printed value. Read-outs that look alike come from different tables or passages of the source. Numbered stars: 1 amine (or outer) side, 2 acyl side, 3 side chain; on linkers, the order of the positions; unused ones are H or OH. Bridge positions count the residues as written; N and C are the ends. Square brackets hold non-standard residues; d marks the D form. Peptide text beside a SMILES is read from it. * marks the point of attachment. X3 = C[C@@H](Oc1ccc([C@H](N[*:1])C(=O)[*:2])cc1)C(O)(/C=C/C(=O)[*:3])CCl; X1 = C[C@@H](Oc1ccc([C@H](N[*:1])C(=O)[*:2])cc1)C1(/C=C/C(=O)[*:3])CO1; Pentanoyl(2R-Me,3R-OH,4-Me) = CC(C)[C@@H](O)[C@@H](C)C(=O)*; d(aIle) = CC[C@H](C)[C@@H](N)C(=O)O; d(aThr) = C[C@@H](O)[C@@H](N)C(=O)O; NMeF = CN[C@@H](Cc1ccccc1)C(=O)O
Columns and labels:
[1] = tested on: rifamycin-, CBR703-, streptolydigin-, myxopyronin- and lipiarmycin-resistant mutants; details: disclosed herein
[2] = tested on: Pseudomonas aeruginosa ATCC10145; assay: Antibacterial activity, broth microdilution; format: cell-based; details: Gram-negative bacterial pathogen
Text: (§1) Antibacterial activity was quantified using broth microdilution [Clinical and Laboratory Standards Institute (CLSI/NCCLS), Methods for Dilution Antimicrobial Susceptibility Tests for Bacteria That Grow Aerobically; Approved Standard, Eighth Edition. CLIS Document M07-A8 (CLIS, Wayne Pa.), 2009]. Assays with Enterobacter cloacae ATCC13047, Pseudomonas aeruginosa ATCC10145, and Escherichia coli D21f2to1C, employed a starting cell density of 2-5×10^5 cfu/ml, Mueller Hinton II cation adjusted broth (BD Biosciences, Inc.), and an air atmosphere. Assays with Haemophilus influenzae ATCC49247 and Neisseria gonorrhoeae ATCC19424 employed a starting cell density of 2-5×10^5 cfu/ml, Haemophilus Test Medium broth (Barry et al., 1993) and a 5% CO2/95% air atmosphere. MIC50 was defined as the minimal concentration resulting in ≧50% inhibition of bacterial growth.

[3] = tested on: Enterobacter cloacae ATCC13047; assay: Antibacterial activity, broth microdilution; format: cell-based; details: for MIC50: Enterobacter cloacae, ATCC13047, minimal concentration resulting in ≧50% inhibition of bacterial growth, read-out: MIC50 Enterobacter cloacae ATCC 13047; for antibacterial activity against Enterobacter cloacae: Gram-negative bacterial pathogen
Text: as §1

[4] = tested on: Escherichia coli D21f2tolC; assay: Antibacterial activity, broth microdilution; format: cell-based; details: Escherichia coli, D21F2TOLC, read-out: MIC50 Escherichia coli D21f2tolC
Text: as §1

[5] = tested on: Haemophilus influenzae ATCC49247; assay: Antibacterial activity, broth microdilution; format: cell-based; details: Gram-negative bacterial pathogen
Text: as §1

[6] = tested on: Neisseria gonorrhoeae ATCC19424; assay: Antibacterial activity, broth microdilution; format: cell-based; details: Gram-negative bacterial pathogen
Text: as §1

[7] = target: Escherichia coli RNAP σ70 holoenzyme (Escherichia coli, UniProt P0A8T7+P0A8V2); assay: Fluorescence-detected RNAP assay, Escherichia coli RNAP; format: biochemical; details: fluorescent-detected RNAP assays
Procedure: Fluorescence-detected RNAP assays with Escherichia coli RNAP were performed by a modification of the procedure of Kuhlman et al., Anal. Biochem. 324:183-190, 2004]. Reaction mixtures contained (20 μl): 0-100 nM test compound, 75 nM Escherichia coli RNAP σ^70 holoenzyme, 20 nM 384 bp DNA fragment containing the bacteriophage T4 N25 promoter, 100 μM ATP, 100 μM GTP, 100 μM UTP, 100 μM CTP, 50 mM Tris-HCl, pH 8.0, 100 mM KCl, 10 mM MgCl2, 1 mM DTT, 10 μg/ml bovine serum albumin, and 5.5% glycerol. Reaction components other than DNA and NTPs were pre-incubated for 10 min at 37° C. Reactions were carried out by addition of DNA and incubation for 5 min at 37° C., followed by addition of NTPs and incubation for 60 min at 37° C. DNA was removed by addition of 1 μl 5 mM CaCl2 and 2 U DNasel (Ambion, Inc.), followed by incubation for 90 min at 37° C. RNA was quantified by addition of 100 μl RiboGreen RNA Quantitation Reagent (Invitrogen, Inc.; 1:500 dilution in Tris-HCl, pH 8.0, 1 mM EDTA), followed by incubation for 10 min at 25° C., followed by measurement of fluorescence intensity [excitation wavelength=485 nm and emission wavelength=535 nm; QuantaMaster QM1 spectrofluorometer (PTI, Inc.)].
(§2) Half-maximal inhibitory concentrations (IC50s) were calculated by non-linear regression in SigmaPlot (SPSS, Inc.).

RNAP = assay: Mechanism of transcription inhibition (nucleotide addition, trigger loop, NTP competition); format: biochemical
[8] = tested on: Gram-positive bacterial pathogens; details: reported previously (Trischman et al. 1994; Moore et al. 1999); cited from earlier work
[9] = tested on: human RNAP I, II, and III; assay: Radiochemical assay with human RNAP I, II, and III (HeLaScribe Nuclear Extract); format: biochemical; details: for IC50: read-out: IC50 human RNAP I/II/III
Procedure: Radiochemical assays with human RNAP I, II, and III were performed essentially as described [Sawadogo and Roeder, Cell 43:165-75, 1985]. Reaction mixtures contained (20 μl): 0-100 μM test compound, 8 U HeLaScribe Nuclear Extract (Promega, Inc.), 1 μg human placental DNA (Sigma-Aldrich), 400 μM ATP, 400 μM [α^32P]UTP (0.11 Bq/fmol), 400 μM CTP, 400 μM GTP, 50 mM Tris-HCl, pH 8.0, 7 mM HEPES-NaOH, 70 mM (NH4)2SO4, 50 mM KCl, 12 mM MgCl2, 5 mM DTT, 0.1 mM EDTA, 0.08 mM phenylmethylsulfonyl fluoride, and 16% glycerol. Reaction components other than DNA and NTPs were pre-incubated 10 min at 30° C., DNA was added and reaction mixtures were incubated 15 min at 30° C., NTPs were added and reaction mixtures were incubated 60 min at 30° C. Reaction mixtures were spotted on DE81 filter discs (Whatman, Inc.; pre-wetted with water) and incubated 1 min at room temperature. Filters were washed with 3×3 ml Na2HPO4, 2×3 ml water, and 3 ml ethanol, using a filter manifold (Hoefer, Inc.). Filters were placed in scintillation vials containing 10 ml Scintiverse BD Cocktail (Thermo Fisher, Inc.), and radioactivity was quantified by scintillation counting (LS6500; Beckman-Coulter, Inc.).
as §2

[10] = tested on: bacterial cells in culture; details: Ebright et al., WO/2012/129173; cited from earlier work
[11] = target: RNAP-promoter open complex (Escherichia coli, UniProt P0A8T7+P0A8V2); assay: Formation of the RNAP-promoter open complex; format: biochemical
[12] = tested on: Vero E6 cells (ATCC CRL1586); assay: Cytotoxicity to mammalian cells in culture (CellTiter96 assay); format: cell-based; details: for MIC50 Vero E6 ATCC CRL1586: Table 3
Text: MICs for mammalian cells (Vero E6) in culture were quantified using CellTiter96 assay (Promega. Inc.; procedures as specified by the manufacturer).

[13] = tested on: rifamycin-, CBR703-, streptolydigin-, myxopyronin- and lipiarmycin-resistant mutants; details: Ebright et al., WO/2012/129173; cited from earlier work
[14] = tested on: Gram-positive and Gram-negative bacterial RNAP; details: reported previously (Miao et al. 1997); cited from earlier work
[15] = tested on: Gram-positive and Gram-negative bacterial RNAP; assay: Inhibition of bacterial RNAP in vitro (statement); format: biochemical; details: disclosed herein

Sequence of Escherichia coli RNAP σ70 holoenzyme (P0A8T7 whole entry, the tested form may be a part): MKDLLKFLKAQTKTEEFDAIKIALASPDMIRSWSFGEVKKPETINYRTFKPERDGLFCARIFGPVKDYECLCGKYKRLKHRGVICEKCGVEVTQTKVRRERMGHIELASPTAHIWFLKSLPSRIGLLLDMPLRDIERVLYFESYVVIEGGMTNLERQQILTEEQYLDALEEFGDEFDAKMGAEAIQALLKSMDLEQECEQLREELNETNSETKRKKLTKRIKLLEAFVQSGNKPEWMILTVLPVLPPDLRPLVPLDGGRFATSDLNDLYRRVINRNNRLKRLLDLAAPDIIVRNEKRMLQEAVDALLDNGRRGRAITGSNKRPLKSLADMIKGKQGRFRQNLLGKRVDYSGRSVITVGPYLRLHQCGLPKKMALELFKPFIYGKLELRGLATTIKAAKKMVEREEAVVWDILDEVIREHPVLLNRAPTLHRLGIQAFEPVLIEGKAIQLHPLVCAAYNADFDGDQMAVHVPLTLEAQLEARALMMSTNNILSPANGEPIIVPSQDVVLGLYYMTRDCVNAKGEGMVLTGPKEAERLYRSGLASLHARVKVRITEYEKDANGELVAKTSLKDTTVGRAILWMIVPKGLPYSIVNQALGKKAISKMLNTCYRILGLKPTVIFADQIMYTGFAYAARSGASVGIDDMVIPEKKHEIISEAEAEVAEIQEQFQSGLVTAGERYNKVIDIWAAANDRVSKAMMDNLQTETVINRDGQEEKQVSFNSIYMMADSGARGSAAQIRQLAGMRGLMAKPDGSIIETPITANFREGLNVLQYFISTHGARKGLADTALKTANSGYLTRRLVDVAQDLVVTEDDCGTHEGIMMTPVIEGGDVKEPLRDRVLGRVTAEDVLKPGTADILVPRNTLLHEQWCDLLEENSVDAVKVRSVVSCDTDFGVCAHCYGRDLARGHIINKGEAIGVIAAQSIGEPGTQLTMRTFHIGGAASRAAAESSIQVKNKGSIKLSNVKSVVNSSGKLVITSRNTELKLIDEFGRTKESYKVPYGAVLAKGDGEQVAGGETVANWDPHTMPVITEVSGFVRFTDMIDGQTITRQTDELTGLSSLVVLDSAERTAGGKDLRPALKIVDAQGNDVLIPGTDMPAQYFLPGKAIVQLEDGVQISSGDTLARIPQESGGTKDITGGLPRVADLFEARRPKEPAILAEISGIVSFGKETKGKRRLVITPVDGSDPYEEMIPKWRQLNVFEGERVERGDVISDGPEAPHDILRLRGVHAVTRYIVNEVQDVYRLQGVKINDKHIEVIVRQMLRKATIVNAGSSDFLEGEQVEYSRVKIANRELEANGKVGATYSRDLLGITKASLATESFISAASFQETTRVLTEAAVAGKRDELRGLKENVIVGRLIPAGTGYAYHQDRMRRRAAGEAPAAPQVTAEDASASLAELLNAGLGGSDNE
Sequence of Escherichia coli RNAP σ70 holoenzyme (P0A8V2 whole entry, the tested form may be a part): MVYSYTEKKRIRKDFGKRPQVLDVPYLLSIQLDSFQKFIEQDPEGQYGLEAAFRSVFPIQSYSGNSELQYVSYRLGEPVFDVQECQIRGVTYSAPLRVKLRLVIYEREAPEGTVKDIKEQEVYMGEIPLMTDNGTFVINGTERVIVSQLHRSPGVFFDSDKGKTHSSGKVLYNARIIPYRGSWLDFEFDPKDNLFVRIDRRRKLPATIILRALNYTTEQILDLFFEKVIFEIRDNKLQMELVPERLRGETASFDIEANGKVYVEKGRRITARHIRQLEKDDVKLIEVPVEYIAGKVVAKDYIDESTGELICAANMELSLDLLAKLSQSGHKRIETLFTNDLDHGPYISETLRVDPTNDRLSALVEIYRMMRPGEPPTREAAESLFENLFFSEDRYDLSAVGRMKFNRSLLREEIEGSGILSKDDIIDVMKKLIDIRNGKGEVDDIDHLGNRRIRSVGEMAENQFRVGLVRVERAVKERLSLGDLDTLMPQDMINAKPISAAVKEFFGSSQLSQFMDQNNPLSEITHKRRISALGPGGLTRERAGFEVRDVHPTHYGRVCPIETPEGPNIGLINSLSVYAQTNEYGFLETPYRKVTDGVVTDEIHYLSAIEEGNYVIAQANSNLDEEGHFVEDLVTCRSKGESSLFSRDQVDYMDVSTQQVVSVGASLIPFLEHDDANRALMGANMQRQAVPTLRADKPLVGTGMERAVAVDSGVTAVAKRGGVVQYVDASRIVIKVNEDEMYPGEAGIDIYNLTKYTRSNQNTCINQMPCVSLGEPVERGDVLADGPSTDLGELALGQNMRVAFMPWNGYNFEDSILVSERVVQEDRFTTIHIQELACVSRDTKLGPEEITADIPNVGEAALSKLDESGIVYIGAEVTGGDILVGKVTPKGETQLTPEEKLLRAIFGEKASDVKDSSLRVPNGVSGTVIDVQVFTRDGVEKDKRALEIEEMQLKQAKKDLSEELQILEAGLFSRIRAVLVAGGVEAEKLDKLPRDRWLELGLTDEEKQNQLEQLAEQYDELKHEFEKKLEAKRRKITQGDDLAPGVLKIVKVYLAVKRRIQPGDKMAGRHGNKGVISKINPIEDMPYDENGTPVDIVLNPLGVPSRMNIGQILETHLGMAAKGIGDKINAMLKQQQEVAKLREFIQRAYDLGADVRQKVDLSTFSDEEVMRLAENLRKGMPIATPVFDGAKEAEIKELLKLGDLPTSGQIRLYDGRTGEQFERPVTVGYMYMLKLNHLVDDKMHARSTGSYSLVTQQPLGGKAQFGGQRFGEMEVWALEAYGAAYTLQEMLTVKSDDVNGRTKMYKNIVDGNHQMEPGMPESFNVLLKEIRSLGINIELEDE
Sequence of Escherichia coli RNAP σ70 holoenzyme (P0A7Z4 whole entry, further chain, the tested form may be a part): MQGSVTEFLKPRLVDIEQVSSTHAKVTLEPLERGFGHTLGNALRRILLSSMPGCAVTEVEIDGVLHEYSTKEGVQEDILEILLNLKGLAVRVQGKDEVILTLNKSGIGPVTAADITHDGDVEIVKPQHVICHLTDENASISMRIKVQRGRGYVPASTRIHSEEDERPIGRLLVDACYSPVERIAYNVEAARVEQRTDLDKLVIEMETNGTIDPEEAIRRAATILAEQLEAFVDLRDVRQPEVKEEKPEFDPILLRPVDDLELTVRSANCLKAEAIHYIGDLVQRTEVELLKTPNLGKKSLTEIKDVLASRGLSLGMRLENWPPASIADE
Sequence of Escherichia coli RNAP σ70 holoenzyme (P0A800 whole entry, further chain, the tested form may be a part): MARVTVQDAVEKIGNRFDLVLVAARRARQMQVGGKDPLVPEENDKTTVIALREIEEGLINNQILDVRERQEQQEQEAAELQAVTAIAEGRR
Sequence of Escherichia coli RNAP σ70 holoenzyme (P00579 whole entry, further chain, the tested form may be a part): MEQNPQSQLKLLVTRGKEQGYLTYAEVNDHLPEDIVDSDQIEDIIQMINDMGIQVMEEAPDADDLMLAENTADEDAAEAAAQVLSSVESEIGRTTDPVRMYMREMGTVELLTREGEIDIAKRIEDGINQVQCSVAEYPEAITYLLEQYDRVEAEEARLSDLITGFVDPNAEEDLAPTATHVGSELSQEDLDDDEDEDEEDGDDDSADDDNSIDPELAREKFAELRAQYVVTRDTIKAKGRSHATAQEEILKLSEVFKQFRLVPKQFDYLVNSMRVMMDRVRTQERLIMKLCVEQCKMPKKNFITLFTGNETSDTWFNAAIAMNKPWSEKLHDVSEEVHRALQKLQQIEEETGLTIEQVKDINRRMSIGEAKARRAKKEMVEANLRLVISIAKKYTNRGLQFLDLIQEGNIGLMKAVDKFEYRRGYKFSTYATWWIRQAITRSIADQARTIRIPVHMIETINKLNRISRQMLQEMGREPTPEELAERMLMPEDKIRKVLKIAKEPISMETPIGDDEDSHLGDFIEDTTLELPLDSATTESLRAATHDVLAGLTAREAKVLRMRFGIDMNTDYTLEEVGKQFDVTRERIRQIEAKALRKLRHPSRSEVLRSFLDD

| Compound | antibacterial activity against Pseudomonas aeruginosa [2] | MIC50 [3] [µg/mL] | antibacterial activity against Enterobacter cloacae [3] | MIC50 [4] [µg/mL] | antibacterial activity against Haemophilus influenzae [5] | antibacterial activity against Neisseria gonorrhoeae [6] | IC50 [7] [nM] | antibacterial activity against Gram-positive bacterial pathogens [8] | inhibition of human RNAP I, II, and III [9] | IC50 [9] [nM] | inhibition of growth of mammalian cells in culture [12] | MIC50 Vero E6 ATCC CRL1586 [12] [µg/mL] | also measured |
| --- | --- | --- | --- | --- | --- | --- | --- | --- | --- | --- | --- | --- | --- |
| CC[C@H](C)[C@H]1NC(=O)[C@@H](NC(=O)[C@H](C)[C@H](O)C(C)C)[C@@H](C)OC(=O)[C@@H]2COC(=O)CNC(=O)/C=C/C3(CO3)[C@@H](C)Oc3ccc(cc3)[C@H](NC1=O)C(=O)N(C)[C@@H](Cc1ccccc1)C(=O)N[C@H]([C@@H](C)O)C(=O)N2 (stereo partly drawn) [SalA (1), salinamide A] ({Pentanoyl(2R-Me,3R-OH,4-Me)}-T[d(aIle)][X1][NMeF][d(aThr)]S; ester 1-C; linker 3-6 via G) | exhibit antibacterial activity | 1.56 (≈ 1.53 µM) | exhibit antibacterial activity | 0.024 (≈ 0.0235 µM) | exhibit antibacterial activity | exhibit antibacterial activity | 1000 | exhibit antibacterial activity | do not detectably inhibit | > 100000 | do not detectably inhibit | >100 | cross-resistance of streptolydigin-resistant, myxopyronin-resistant, and lipiarmycin-resistant mutants with Sal [1]: do not exhibit cross-resistance; inhibition of nucleotide addition in transcription initiation and transcription elongation (RNAP): inhibits; inhibition of wild-type RNAP versus RNAP-derivative having a deletion of the trigger loop (RNAP): equal extents; mode of transcription inhibition with respect to NTP substrate (RNAP): noncompetitive; inhibition of RNA synthesis in bacterial cells in culture [10]: inhibits; inhibition of formation of the RNAP-promoter open complex in transcription initiation [11]: does not inhibit; cross-resistance of CBR703-resistant mutants to Sal [13]: not cross-resistant; cross-resistance of rifamycin-resistant mutants to Sal [13]: not cross-resistant; inhibition of Gram-positive and Gram-negative bacterial RNAP in vitro [14]: inhibits |
| CC[C@H](C)[C@H]1NC(=O)[C@@H](NC(=O)[C@H](C)[C@H](O)C(C)C)[C@@H](C)OC(=O)[C@@H]2COC(=O)CNC(=O)/C=C/C(O)(CCl)[C@@H](C)Oc3ccc(cc3)[C@H](NC1=O)C(=O)N(C)[C@@H](Cc1ccccc1)C(=O)N[C@H]([C@@H](C)O)C(=O)N2 (stereo partly drawn) [SalB (2), salinamide B] ({Pentanoyl(2R-Me,3R-OH,4-Me)}-T[d(aIle)][X3][NMeF][d(aThr)]S; ester 1-C; linker 3-6 via G) | exhibit antibacterial activity | 6.25 (≈ 5.92 µM) | exhibit antibacterial activity | 0.098 (≈ 0.0927 µM) | exhibit antibacterial activity | exhibit antibacterial activity | 1000 | exhibit antibacterial activity | do not detectably inhibit | > 100000 | do not detectably inhibit | >100 | inhibition of Gram-positive and Gram-negative bacterial RNAP in vitro [15]: inhibits |

Source: patent US9809626B2, “Antibacterial agents: salinamide derivatives” (priority 2012, dated 2017)
